Reference: US7632817B2, “Peptide decoys for the preparation of medicaments intended for the prevention or treatment of autoimmune pathologies or disorders linked to the appearance of antibodies directed against exogenous proteins” (Centre National de la Recherche Scientifique, priority 2001, dated 2009)
Where no end group is shown, it is not given here.

How the values were obtained:
[1] = test system: 2C11 antibody (binding to factor VIII); assay: ELISA: inhibition of binding of 2C11 antibody to immobilized FVIII by soluble peptides; parameters: species or system human
Procedure: The FVIII is immobilized on the ON plate at 4° C. In parallel, the inhibitor antibody is preincubated with its epitope peptide(s) in the ON range at 4° C. in 0.1% PBS-T-2% milk. After saturation for 1 hour with 0.1% PBS-T-2% milk, the Ab-peptide mixtures are incubated with the immobilized FVIII for 2 hours at 37° C. Between each of these incubations, 3 washings with 0.1% PBS-T are carried out except after the saturation. Detection of the FVIII-Ab complex is achieved by a mouse or human anti-IgG coupled to peroxidase diluted to 1:3000 incubated for 1 hour at 37° C. After 5 washings with 0.1% PBS-T, the peroxidase substrate (OPD) is added. The reaction takes place for 30 minutes in the dark then measurement of the absorbance is carried out at 450 nm. After stopping the reaction by the addition of H2SO4 4N, a new measurement is carried out at 490 nm.
The blocking activity of the decoys can be verified in vitro in an ELISA test. […] The neutralizing ability of the decoy can be confirmed in a functional test such as the Bethesda Test (method of Kasper, [Kasper et al., 1975, Thromb. Diath. Haemorrh. 34, 875-6]).
The Inventors studied the ability of these soluble peptides to inhibit the binding of the 2C11 antibody to factor VIII in an ELISA test in vitro in the following manner: immobilization of FVIII, pre-incubation of 2C11 with the soluble peptides in the range (200 μM, 20 μM, 2 μM, 200 nM, 20 nM, 2 nM) overnight at 4° C., then incubation of this premixture on the FVIII, then development of the 2C11 antibody. The results obtained are indicated hereafter.

[2] = test system: 2C11 antibody; assay: Bethesda functional coagulation test: neutralization of the inhibiting activity of 2C11 by peptides; format: biochemical, human; conditions: for neutralization of the inhibiting activity of 2C11 (in words): 2C11 3.5 nM
Source text: This functional test (Kasper, C. K. & Pool, J. G. (1975) Letter: Measurement of mild factor VIII inhibitors in Bethesda units, Thromb Diath Haemorrh. 34, 875-6) consists of measuring the time necessary for a mixture composed of different coagulation factors (FIXa, FVIII, phospholipides, calcium etc.) in order to coagulate completely. The inhibiting effect of an antibody is characterized in such a test by an extension of the coagulation time, the inhibiting ability of the antibody becomes greater as the extension of the coagulation time increases. The inhibiting character of an antibody is expressed in Bethesda units, which corresponds to the reciprocal concentration of antibodies in order to neutralize 50% of the coagulant activity of the FVIII. In contrast, the neutralizing effect of the peptides is translated by a return to the initial coagulation time obtained in the absence of inhibitor.
The functional test followed is derived from the abovementioned test described by Kasper. The anti-FVIII monoclonal antibodies are diluted in an 0.05 M imidazole buffer, pH 7.3. An equal volume of this preparation (250 μl) with normal plasma buffered in imidazole (0.1 M, pH 7.4) are mixed and incubated for 2 hours at 37° C. Similarly, normal plasma buffered in imidazole is mixed with a non-specific antibody which constitutes the control. The inhibiting activity of an antibody is read from a semi-logarithmic graph representing the correlation between the residual activity of the FVIII and the inhibiting activity.
This mixture is then treated as above.
Firstly, the Inventors evaluated in a functional coagulation test (Bethesda test) the ability of peptide 107 to restore the procoagulant activity of FVIII in the presence of 2C11. FIG. 2 depicts the dose-dependent neutralization of the inhibiting activity of 2C11 by peptide 107. […] However, higher peptide concentrations are necessary in order to achieve an effectiveness similar to that of peptide 107 (data not shown).
FIG. 2 represents the evolution of the activity of factor VIII, evaluated by the Bethesda test, in the presence of 3.5 nM of 2C11 antibody as a function of peptide concentration. The 2C11 antibody was incubated overnight at 4° C. in the presence of a control peptide or peptide 107 (SCHAWSNRRTCR) (SEQ ID NO: 10) in variable concentration. The factor VIII was then incubated for 2 hours at 37° C. with these peptide-antibody mixtures or with peptide 107 alone, then its residual activity was measured with a coagulometer, in one stage.

[3] = test system: factor VIII; assay: Bethesda test: effect on procoagulant activity of factor VIII; format: biochemical, human; conditions: no antibody
Source text: This functional test (Kasper, C. K. & Pool, J. G. (1975) Letter: Measurement of mild factor VIII inhibitors in Bethesda units, Thromb Diath Haemorrh. 34, 875-6) consists of measuring the time necessary for a mixture composed of different coagulation factors (FIXa, FVIII, phospholipides, calcium etc.) in order to coagulate completely. The inhibiting effect of an antibody is characterized in such a test by an extension of the coagulation time, the inhibiting ability of the antibody becomes greater as the extension of the coagulation time increases. […]
The functional test followed is derived from the abovementioned test described by Kasper. […] The inhibiting activity of an antibody is read from a semi-logarithmic graph representing the correlation between the residual activity of the FVIII and the inhibiting activity.
FIG. 1 represents the effect of the 2C11 antibody on the activity of factor VIII evaluated by the Bethesda test. Factor VIII was incubated in the presence of 3.5 nM of 2C11 antibody for 2 hours at 37° C., the residual activity of factor VIII was then measured with a coagulometer, in one stage.
FIG. 2 represents the evolution of the activity of factor VIII, evaluated by the Bethesda test, in the presence of 3.5 nM of 2C11 antibody as a function of peptide concentration. […]

[4] = test system: FVIII inhibitors in serums of hemophilia patients; assay: Reactivity of serums of hemophilia patients with inhibitors with peptide 107; format: binding, human; conditions: out of 12 serums of hemophilia patients with inhibitors; preliminary study
Source text: Thirdly, the Inventors looked at whether the neutralizing properties of peptide 107 vis-à-vis 2C11 could also be applied to other serums of hemophilia patients with inhibitors.

[5] = test system: 2C11 antibody; assay: In vivo neutralization of 2C11 in mice deficient in FVIII given human FVIII; parameters: species or system mouse
Procedure: Secondly, the neutralization properties of peptide 107 were studied in vivo, using a mouse model deficient in FVIII. […] Having determined this, 2C11 antibody ([…]) incubated alone, in the presence of peptide 107, or a control peptide (650 μM and 700 μM, respectively) was injected into the tail vein of three groups of mice respectively. Thirty minutes later, the FVIII plasma count of these mice was reconstituted by the injection of 0.5 UI of human FVIII and after fifteen minutes the plasma procoagulant activity was measured.
The 2C11 antibody (16.5 nM) or a mixture containing the 2C11 antibody (16.5 nM) and peptide 107 (650 μM) or a control peptide (700 μM) was injected into the tail vein of a “knock out” mouse, deficient in factor VIII, at a rate of 2.5 μg of 2C11 antibody, 1 mg of peptide 107 and 1 mg of control peptide. After 30 minutes, 0.5 UI of human factor VIII was injected and the plasma procoagulant activity was then measured by a chromogenic test 15 minutes later.
The percentage of residual activity of factor VIII is represented on the Y-axis. Bar A represents the effect of the injection of factor VIII without prior injection of antibodies (100% of residual activity). Bar B represents the effect of the injection of the 2C11 antibody alone prior to the injection of factor VIII. […]

[6] = peptide concentration 0.002 (2 nM)
[7] = peptide concentration 0.02 (20 nM)
[8] = peptide concentration 20 (range: 20 μM)
[9] = peptide concentration 200 (range: 200 μM), pre-incubation overnight at 4° C.

Sequence | % inhibition of 2C11 binding to FVIII [1, 6] [%] | % inhibition of 2C11 binding to FVIII [1, 7] [%] | % inhibition of 2C11 binding to FVIII ([1]; peptide concentration 2 (2 μM)) [%] | % inhibition of 2C11 binding to FVIII [1, 8] [%] | % inhibition of 2C11 binding to FVIII [1, 9] [%] | inhibition of the 2C11 Ab/FVIII bond (in words) [1] | IC50 ([2]; 2C11 concentration 3.5 nM) [µM] | neutralization of the inhibiting activity of 2C11 (in words) [2] | effect of peptide incubated with FVIII alone on procoagulant activity of FVIII [3] | number of patient serums reacting with the peptide [4] | peptide concentration for total neutralization of 2C11 inhibiting effect ([2]; 2C11 concentration 3.5 nM) [µM] | procoagulant activity of the FVIII maintained ([5]; 2C11 16.7 nM + peptide 650 μM injected in tail vein, 0.5 UI human FVIII after 30 min, measured 15 min later) [%] | neutralizing effect on 2C11 in vivo (in words) ([5]; FVIII-deficient mice, peptide 107 650 μM, control peptide 700 μM)
KCGRWSNRSSCT (Ac-KCGRWSNRSSCT; cysteine pairing not given here) [compound 103] | 0 | 0 | 3.47 | 28.26 | 62.73 |  |  | effectively neutralize |  |  |  |  | 
QCHTWSNRRSCL (Ac-QCHTWSNRRSCL; cysteine pairing not given here) [compound 108] | 0 | 0 | 15.79 | 25.99 | 60.69 |  |  | effectively neutralize |  |  |  |  | 
CMKWSNRSSRWC (Ac-CMKWSNRSSRWC; cysteine pairing not given here) [compound 106] | 0 | 0 | 0.00 | 21.99 | 36.56 |  |  | effectively neutralize |  |  |  |  | 
CSKWHNRSKRHC (Ac-CSKWHNRSKRHC; cysteine pairing not given here) [compound 105] | 0 | 0 | 10.27 | 45.04 | 75.58 |  |  | effectively neutralize |  |  |  |  | 

Now from value to sequence, other results behind:

% inhibition of 2C11 binding to FVIII [1, 6] [%] | % inhibition of 2C11 binding to FVIII [1, 7] [%] | % inhibition of 2C11 binding to FVIII ([1]; peptide concentration 2 (2 μM)) [%] | % inhibition of 2C11 binding to FVIII [1, 8] [%] | % inhibition of 2C11 binding to FVIII [1, 9] [%] | inhibition of the 2C11 Ab/FVIII bond (in words) [1] | IC50 ([2]; 2C11 concentration 3.5 nM) [µM] | Sequence | neutralization of the inhibiting activity of 2C11 (in words) [2] | effect of peptide incubated with FVIII alone on procoagulant activity of FVIII [3] | number of patient serums reacting with the peptide [4] | peptide concentration for total neutralization of 2C11 inhibiting effect ([2]; 2C11 concentration 3.5 nM) [µM] | procoagulant activity of the FVIII maintained ([5]; 2C11 16.7 nM + peptide 650 μM injected in tail vein, 0.5 UI human FVIII after 30 min, measured 15 min later) [%] | neutralizing effect on 2C11 in vivo (in words) ([5]; FVIII-deficient mice, peptide 107 650 μM, control peptide 700 μM)
0 | 0 | 12.46 | 37.48 | 75.05 |  |  | RCHAWSNRKSCV (Ac-RCHAWSNRKSCV; cysteine pairing not given here) [compound 109] | effectively neutralize |  |  |  |  | 
0 | 0 | 13.44 | 30.68 | 63.71 |  |  | ECGSHAWGRRCK (chain 1 Ac-ECGSHAWGRRCK; chain 2 Ac-ECGSHAWGRRCK; cysteine pairing not given here) [compound 104] | effectively neutralize |  |  |  |  | 
0 | 0 | 37.33 | 80.04 | 90.48 | the most effective | 19 | SCHAWSNRRTCR [peptide 107] | makes it possible to neutralize the effect of the 2C11 antibody | does not at all modify the procoagulant activity of the FVIII | 2 | ~100 | 52 | specifically neutralizes the effect of the 2C11 antibody in vivo
